Laboratory results published in PubChem BioAssay AID248 (DTP/NCI, 2004).
Where “and” joins values, the source holds several entries; their conditions need not be identical. Identical values can stand only once. Toxic doses and inconclusive results are not listed. Cut-off read from the data, not from the text of the source: active = T/C of 150% or more; inactive = T/C below 125%.

Test system: L1210 leukemia ip in BDF1 mice, survival T/C
Assay: NCI In Vivo Anticancer Drug Screen. Data for tumor model L1210 Leukemia (intraperitoneal) in B6D2F1 (BDF1) mice
Details: endpoint: mean survival time, higher = longer survival
Outline: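 Mice bearing the transplanted tumor received compound or vehicle. Survival of the treated group was divided by that of the vehicle-treated control group to give the ratio.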

[1] = dose: 12.5 mg/kg/injection, schedule: Q01DX009 (ip), vehicle: saline
[2] = dose: 25.0 mg/kg/injection, schedule: Q01DX009 (ip), vehicle: saline
[3] = dose: 25.0 mg/kg/injection, schedule: Q04DX003 (ip), vehicle: saline
[4] = dose: 50.0 mg/kg/injection, schedule: Q04DX003 (ip), vehicle: saline
[5] = dose: 100.0 mg/kg/injection, schedule: Q04DX003 (ip), vehicle: saline
[6] = dose: 100.0 mg/kg/injection, schedule: Q01DX001 (ip), vehicle: saline
[7] = dose: 200.0 mg/kg/injection, schedule: Q01DX001 (ip), vehicle: saline
[8] = dose: 200.0 mg/kg/injection, schedule: Q04DX003 (ip), vehicle: saline
[9] = dose: 400.0 mg/kg/injection, schedule: Q04DX003 (ip), vehicle: saline
[10] = dose: 50.0 mg/kg/injection, schedule: Q01DX009 (ip), vehicle: saline
[11] = dose: 100.0 mg/kg/injection, schedule: Q01DX009 (ip), vehicle: saline with Tween-80
[12] = dose: 100.0 mg/kg/injection, schedule: Q04DX003 (ip), vehicle: saline with Tween-80
[13] = dose: 200.0 mg/kg/injection, schedule: Q01DX009 (ip), vehicle: saline with Tween-80
[14] = dose: 200.0 mg/kg/injection, schedule: Q04DX003 (ip), vehicle: saline with Tween-80
[15] = dose: 400.0 mg/kg/injection, schedule: Q04DX003 (ip), vehicle: saline with Tween-80

Measured: T/C

[N-]=[N+]=NCc1cnccn1
inactive: [1] 103 % of control | dose: 12.5 mg/kg/injection, schedule: Q04DX003 (ip), vehicle: saline 98 % of control | [2] 101 % of control | [3] 98 % of control | [4] 98 % of control

O=C(O)CSc1ccc([N+](=O)[O-])cn1
inactive: dose: 6.25 mg/kg/injection, schedule: Q01DX001 (ip), vehicle: carboxymethylcellulose (CMC) 108 % of control | dose: 12.5 mg/kg/injection, schedule: Q01DX001 (ip), vehicle: carboxymethylcellulose (CMC) 111 % of control | dose: 25.0 mg/kg/injection, schedule: Q01DX001 (ip), vehicle: carboxymethylcellulose (CMC) 104 % of control | dose: 37.5 mg/kg/injection, schedule: Q01DX001 (ip), vehicle: carboxymethylcellulose (CMC) 104 % of control | dose: 50.0 mg/kg/injection, schedule: Q01DX001 (ip), vehicle: carboxymethylcellulose (CMC) 115 % of control | dose: 100.0 mg/kg/injection, schedule: Q01DX001 (ip), vehicle: carboxymethylcellulose (CMC) 101 % of control | dose: 200.0 mg/kg/injection, schedule: Q01DX001 (ip), vehicle: carboxymethylcellulose (CMC) 103 % of control | dose: 400.0 mg/kg/injection, schedule: Q01DX001 (ip), vehicle: carboxymethylcellulose (CMC) 101 % of control

c1ccc2c(c1)CCN(CCCCN1CCc3ccccc3C1)C2
inactive: [3] 100 % of control | [4] 102 % of control | [5] 96 % of control and 97 % of control

CCNS(=O)(=O)c1ccc(Cl)c([N+](=O)[O-])c1
inactive: dose: 100.0 mg/kg/injection, schedule: Q01DX001 (ip), vehicle: Klucel (hydroxypropylcellulose) (HPC) 101 % of control | dose: 200.0 mg/kg/injection, schedule: Q01DX001 (ip), vehicle: Klucel (hydroxypropylcellulose) (HPC) 102 % of control | dose: 400.0 mg/kg/injection, schedule: Q01DX001 (ip), vehicle: Klucel (hydroxypropylcellulose) (HPC) 107 % of control

CC(C)(CO)N(CC(=O)O)CC(=O)O
inactive: [6] 101 % of control | [7] 103 % of control

Cc1cc(NS(=O)(=O)c2ccc(N)cc2)sn1
inactive: [5] 87 % of control | [8] 92 % of control | [9] 97 % of control

Nc1nc(N)c2nc(CNc3ccc(Cl)c(Cl)c3)cnc2n1
inactive: dose: 1.0 mg/kg/injection, schedule: Q01DX009 (ip), vehicle: saline 103 % of control | dose: 2.0 mg/kg/injection, schedule: Q01DX009 (ip), vehicle: saline 101 % of control | dose: 4.0 mg/kg/injection, schedule: Q01DX009 (ip), vehicle: saline 94 % of control | dose: 4.0 mg/kg/injection, schedule: Q04DX003 (ip), vehicle: saline 90 % of control | dose: 8.0 mg/kg/injection, schedule: Q01DX009 (ip), vehicle: saline 90 % of control | dose: 8.0 mg/kg/injection, schedule: Q04DX003 (ip), vehicle: saline 100 % of control | dose: 16.0 mg/kg/injection, schedule: Q01DX009 (ip), vehicle: saline 87 % of control | dose: 16.0 mg/kg/injection, schedule: Q04DX003 (ip), vehicle: saline 92 % of control | dose: 32.0 mg/kg/injection, schedule: Q04DX003 (ip), vehicle: saline 97 % of control | dose: 64.0 mg/kg/injection, schedule: Q04DX003 (ip), vehicle: saline 89 % of control

CC(C)N(CCC(=O)CC12CC3CC(CC(C3)C1)C2)C(C)C
inactive: dose: 25.0 mg/kg/injection, schedule: Q04DX002 (ip), vehicle: saline 92 % of control | dose: 50.0 mg/kg/injection, schedule: Q04DX002 (ip), vehicle: saline 98 % of control | dose: 100.0 mg/kg/injection, schedule: Q04DX002 (ip), vehicle: saline 95 % of control and 97 % of control

O=C(COc1ccc(Cl)cc1Cl)Nc1ccc(S(=O)(=O)O)cc1
inactive: dose: 100.0 mg/kg/injection, schedule: Q04DX002 (ip), vehicle: Klucel (hydroxypropylcellulose) (HPC) 92 % of control | dose: 200.0 mg/kg/injection, schedule: Q04DX002 (ip), vehicle: Klucel (hydroxypropylcellulose) (HPC) 111 % of control | dose: 400.0 mg/kg/injection, schedule: Q04DX002 (ip), vehicle: Klucel (hydroxypropylcellulose) (HPC) 103 % of control

CC(=N\N=C(N)N)/C(C)=N/N=C(N)N
inactive: dose: 75.0 mg/kg/injection, schedule: Q01DX001 (ip), vehicle: saline 101 % of control | dose: 150.0 mg/kg/injection, schedule: Q01DX001 (ip), vehicle: saline 98 % of control

C[N+](C)=C(Cl)Cl
inactive: [6] 97 % of control | [7] 97 % of control | dose: 400.0 mg/kg/injection, schedule: Q01DX001 (ip), vehicle: saline 95 % of control

COc1cc2c(cc1OC)CC[N+](C)=C2
inactive: [1] 92 % of control | [2] 95 % of control | [3] 108 % of control | [10] 93 % of control | [4] 100 % of control | dose: 100.0 mg/kg/injection, schedule: Q01DX009 (ip), vehicle: saline 96 % of control | [5] 103 % of control and 106 % of control

CCOC(=O)c1ccc(NC(=O)NCCCCCCNC(=O)Nc2ccc(C(=O)OCC)cc2)cc1
inactive: dose: 100.0 mg/kg/injection, schedule: Q01DX009 (ip), vehicle: Klucel (hydroxypropylcellulose) (HPC) 90 % of control | dose: 200.0 mg/kg/injection, schedule: Q01DX009 (ip), vehicle: Klucel (hydroxypropylcellulose) (HPC) 100 % of control | dose: 400.0 mg/kg/injection, schedule: Q01DX009 (ip), vehicle: Klucel (hydroxypropylcellulose) (HPC) 100 % of control

CNc1c(Cl)c(Cl)cc(Cl)c1Cl
inactive: [11] 104 % of control | [12] 95 % of control | [13] 110 % of control | [14] 114 % of control | [15] 93 % of control

Cc1c(Cl)cccc1NC(=O)Nc1ccc(S(N)(=O)=O)cc1
inactive: [11] 93 % of control and 97 % of control | dose: 100.0 mg/kg/injection, schedule: Q04DX002 (ip), vehicle: saline with Tween-80 101 % of control and 110 % of control | [12] 100 % of control | [13] 104 % of control and 105 % of control | dose: 200.0 mg/kg/injection, schedule: Q04DX002 (ip), vehicle: saline with Tween-80 101 % of control and 104 % of control | [14] 95 % of control | dose: 400.0 mg/kg/injection, schedule: Q01DX009 (ip), vehicle: saline with Tween-80 93 % of control and 101 % of control | dose: 400.0 mg/kg/injection, schedule: Q04DX002 (ip), vehicle: saline with Tween-80 93 % of control and 95 % of control | [15] 92 % of control

CC(C(=O)N1c2ccccc2Sc2ccccc21)[N+]1(C)CCCC1 (stereo not drawn)
inactive: dose: 3.12 mg/kg/injection, schedule: Q01DX009 (ip), vehicle: saline 97 % of control | dose: 6.25 mg/kg/injection, schedule: Q01DX009 (ip), vehicle: saline 103 % of control | [1] 102 % of control | [2] 102 % of control | [3] 107 % of control | [10] 91 % of control | [4] 91 % of control

CC(C)(C)OB(OC(C)(C)C)OC(C)(C)C
inactive: dose: 25.0 mg/kg/injection, schedule: Q01DX009 (ip), vehicle: other 105 % of control | dose: 50.0 mg/kg/injection, schedule: Q01DX009 (ip), vehicle: other 98 % of control | dose: 100.0 mg/kg/injection, schedule: Q01DX009 (ip), vehicle: other 109 % of control | [5] 98 % of control | dose: 200.0 mg/kg/injection, schedule: Q01DX009 (ip), vehicle: other 104 % of control | [8] 102 % of control | [9] 109 % of control
